Reference: patent US20120270237A9, “METHODS FOR THE IDENTIFICATION OF KINASE INTERACTING MOLECULES AND FOR THE PURIFICATION OF KINASE PROTEINS” (Cellzone AG, priority 2009, published 2012)

Target: T1, MAP3K2 (Homo sapiens, UniProt Q9Y2U5)
T1 sequence (Q9Y2U5 1-619): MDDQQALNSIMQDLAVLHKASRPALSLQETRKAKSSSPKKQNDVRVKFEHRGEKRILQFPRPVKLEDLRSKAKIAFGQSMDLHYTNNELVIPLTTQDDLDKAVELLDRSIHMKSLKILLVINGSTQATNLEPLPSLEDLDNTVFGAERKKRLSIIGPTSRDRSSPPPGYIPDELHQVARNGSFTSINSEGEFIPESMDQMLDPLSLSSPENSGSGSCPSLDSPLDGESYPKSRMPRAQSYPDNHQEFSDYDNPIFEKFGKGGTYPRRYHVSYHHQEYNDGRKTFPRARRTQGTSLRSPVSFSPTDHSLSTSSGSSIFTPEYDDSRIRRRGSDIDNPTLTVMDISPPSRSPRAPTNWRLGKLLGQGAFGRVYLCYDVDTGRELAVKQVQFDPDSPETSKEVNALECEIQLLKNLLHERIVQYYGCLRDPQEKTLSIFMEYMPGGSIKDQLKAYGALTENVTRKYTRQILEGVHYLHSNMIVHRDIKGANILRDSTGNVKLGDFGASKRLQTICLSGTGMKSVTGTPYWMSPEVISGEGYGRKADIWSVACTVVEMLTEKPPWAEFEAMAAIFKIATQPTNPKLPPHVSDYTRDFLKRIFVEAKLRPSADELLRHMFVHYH
Assay: Kinobeads competition binding, HL60 cell lysate
Design: endogenous in cells; host or cells: HL60 cell lysate
Settings: 10 μM free compound
Description: To one aliquot of cell lysate 10 μM of the free compound (FIG. 3, CZC31326) was added and allowed to bind to proteins in the lysate. Then the affinity matrix with the immobilized compound (Example 1) was added to capture proteins that were not interacting with the previously added free compound. Beads were separated from the lysate and bead bound proteins were eluted in SDS sample buffer and subsequently separated by SDS-Polyacrylamide gel electrophoresis (FIG. 4). Suitable gel bands were cut out and subjected to in-gel proteolytic digestion with trypsin. The second lysate aliquot was processed identically, however no free compound was added (DMSO solvent control). Peptides originating from samples 1 and 2 were labeled with iTRAQ reagents (iTRAQ 114 and iTRAQ 117) and the combined samples were analyzed with a nano-flow liquid chromatography system coupled online to a tandem mass spectrometer (LC-MS/MS) experiment followed by iTRAQ reporter ion quantification in the MS/MS spectra (Ross et al., 2004. Mol. Cell. Proteomics 3(12):1154-1169). Further experimental protocols can be found in WO2006/134056 and a previous publication (Bantscheff et al., 2007. Nature Biotechnology 25, 1035-1044). Sepharose-beads with the immobilized compound (100 μl beads per pull-down experiment) were equilibrated in lysis buffer and incubated with a cell lysate sample containing 50 mg of protein on an end-over-end shaker (Roto Shake Genie, Scientific Industries Inc.) for 2 hours at 4° C. […] The iTRAQ reagents are a set of multiplexed, amine-specific, stable isotope reagents that can label peptides on amino groups in up to four different biological samples enabling simultaneous identification and quantitation of peptides. […] Relative protein quantitation was performed using peak areas of iTRAQ reporter ion signals essentially as described in an earlier publication (Bantscheff et al., 2007. Nature Biotechnology 25, 1035-1044).

inhibition at 10 µM: 96.3%
SMILES: CS(=O)(=O)Nc1ccccc1Nc1nc(Nc2cccc(OCCN)c2)ncc1Cl [CZC31326, N-(2-(2-(3-(2-aminoethoxy)phenylamino)-5-chloropyrimidin-4-ylamino)phenyl)methanesulfonamide]
